Reference: article PMC6522510 (Nature Communications, 2019)
Where two headings read alike, the source gives them in different places.

Assays:
ML2 = assay: Secondary dose-response HTS, Cell Titer Glo; type: cell-based, human; settings: secondary high-throughput screen, ML-2; for EC50: read-out: average effective concentration, ML-2
CHRF288-11 [1] = assay: Secondary dose-response HTS, Cell Titer Glo; type: cell-based, human; settings: secondary high-throughput screen, CHRF288-11; for EC50: Homo sapiens, HTS, read-out: average effective concentration, CHRF288-11
M07e = assay: Secondary dose-response HTS, Cell Titer Glo; type: cell-based, human; settings: secondary high-throughput screen; for EC50: read-out: average effective concentration, M07e
CMS [2] = assay: Secondary dose-response HTS, Cell Titer Glo; type: cell-based, human; settings: secondary high-throughput screen, CMS; for EC50: read-out: average effective concentration, CMS
CMK [3] = assay: Secondary dose-response HTS, Cell Titer Glo; type: cell-based, human; settings: CMK; for EC50: read-out: average effective concentration, CMK
U937 [4] = assay: Secondary dose-response HTS, Cell Titer Glo; type: cell-based, human; settings: secondary high-throughput screen, U937; for EC50: read-out: average effective concentration, U937
MV4-11 [5] = assay: cells; design: species or system AML cell lines (8); Secondary HTS, 10-point dose-response in triplicate, Cell Titer Glo viability, four-parameter fit EC50; settings: Homo sapiens, MV4-11, 72 h, read-out: MV4-11
MOLM-13 [6] = assay: cells; design: species or system AML cell lines (8); Secondary HTS, 10-point dose-response in triplicate, Cell Titer Glo viability, four-parameter fit EC50; settings: Homo sapiens, MOLM-13, 72 h, read-out: MOLM-13
CMS [7] = assay: cells; design: species or system AML cell lines (8); Secondary HTS, 10-point dose-response in triplicate, Cell Titer Glo viability, four-parameter fit EC50; settings: 72 h, read-out: CMS
MOLM-13 [8] = assay: Secondary dose-response HTS, Cell Titer Glo; type: cell-based, human; settings: secondary high-throughput screen, MOLM-13; for EC50: read-out: average effective concentration, MOLM-13
MV4-11 [9] = assay: Secondary dose-response HTS, Cell Titer Glo; type: cell-based, human; settings: secondary high-throughput screen, MV4-11; for EC50: read-out: average effective concentration, MV4-11
CMK [10] = assay: cells; design: species or system AML cell lines (8); Secondary HTS, 10-point dose-response in triplicate, Cell Titer Glo viability, four-parameter fit EC50; settings: Homo sapiens, CMK, 72 h, read-out: CMK
U937 [11] = assay: cells; design: species or system AML cell lines (8); Secondary HTS, 10-point dose-response in triplicate, Cell Titer Glo viability, four-parameter fit EC50; settings: Homo sapiens, U-937, 72 h, read-out: U937
CHRF288-11 [12] = assay: cells; design: species or system AML cell lines (8); Secondary HTS, 10-point dose-response in triplicate, Cell Titer Glo viability, four-parameter fit EC50; settings: 72 h, read-out: CHRF288-11
[13] = Homo sapiens, secondary high-throughput screen
[14] = secondary high-throughput screen

Molecule	EC50 (ML2; Homo sapiens) [nM]	EC50 (CHRF288-11 [1]) [nM]	EC50 (M07e; Homo sapiens, M-07e, M07e) [nM]	EC50 (U937 [4]; Homo sapiens, U-937) [nM]	EC50 (CMS [7]) [nM]	EC50 (MOLM-13 [8]; Homo sapiens) [nM]	EC50 (MV4-11 [9]; Homo sapiens) [nM]	average effective concentration, CHRF288-11 (CHRF288-11 [1])	also measured
O=C(CCCCCN1C(=O)c2cccc3cccc(c23)C1=O)NO	4100	1700	330	680					EC50 (CMS [2]; Homo sapiens, HTS): 600 nM; EC50 (CMK [3]; [13]): 200 nM
Cn1ncnc1[C@H]1c2n[nH]c(=O)c3cc(F)cc(c23)N[C@@H]1c1ccc(F)cc1 [BMN 673]	79	74	9200	3600	> 10000				EC50 (MV4-11 [5]): > 10000 nM; EC50 (MOLM-13 [6]): > 10000 nM; EC50 (CMK [3]; [13]): 210 nM
COc1cc(Nc2c(C#N)cnc3cc(OCCCN4CCN(C)CC4)c(OC)cc23)c(Cl)cc1Cl [BOSUTINIB]	10000	3800	4800	3800	> 10000	2700	3800		EC50 (CMK [3]; Homo sapiens): 1100 nM
O=C(/C=C/c1cccc(C(=O)NO)c1)NO [CBHA]									EC50 (ML2): 5200 nM; EC50 (M07e; M07e): 2200 nM; EC50 (MOLM-13 [8]): 2400 nM; average effective concentration, CMK (CMK [3]; [14]): Inactive; average effective concentration, MV4-11 (MV4-11 [9]): Inactive; EC50 (U937 [4]): 1300 nM
O=C(/C=C/c1cccnc1)NCCCCC1CCN(C(=O)c2ccccc2)CC1 [DAPORINAD]	1	12	1	1	> 10000	1	1		EC50 (CMK [3]; [13]): 1 nM
COc1cccc2c1C(=O)c1c(O)c3c(c(O)c1C2=O)C[C@@](O)(C(C)=O)C[C@@H]3O[C@H]1C[C@H](N)[C@H](O)[C@H](C)O1 [DAUNORUBICIN]	1	1		4.3		43	23		EC50 (M07e; Homo sapiens, M-07e, […]): 9 nM; EC50 (CMK [3]; [13]): 35 nM
C=C(C)[C@@H](CC=C(C)C)C[C@@]12C[C@@H](CC=C(C)C)C(C)(C)[C@@](CC=C(C)C)(C(=O)C(C(=O)c3ccc(O)c(O)c3)=C1O)C2=O [GARCINOL]	5400	5800			> 10000	5100			EC50 (CMK [10]): > 10000 nM; EC50 (MV4-11 [5]): > 10000 nM; EC50 (M07e; Homo sapiens, M-07e, […]): > 10000 nM; EC50 (U937 [11]): > 10000 nM
COC1=C2C[C@@H](C)C[C@H](OC)[C@H](O)[C@@H](C)/C=C(\C)[C@H](OC(N)=O)[C@@H](OC)/C=C\C=C(/C)C(=O)NC(=CC1=O)C2=O [GELDANOMYCIN]								Inactive	average effective concentration, M07e (M07e; M07e): Inactive; average effective concentration, CMS (CMS [2]): Inactive; average effective concentration, CMK (CMK [3]; [14]): Inactive
COC(=O)[C@H](CC(C)C)NC(=O)c1ccc(NC[C@@H](N)CS)cc1-c1cccc2ccccc12 [GGTI 298]								Inactive	average effective concentration, ML-2 (ML2): Inactive; average effective concentration, M07e (M07e; M07e): Inactive; average effective concentration, CMS (CMS [2]): Inactive; average effective concentration, CMK (CMK [3]; [14]): Inactive
N#CN=C(NCCCCCCOc1ccc(Cl)cc1)Nc1ccncc1 [GMX-1778]	0.35	0.48		5	> 10000	3.6	1.1		EC50 (M07e; Homo sapiens, M-07e, […]): 0.52 nM; EC50 (CMK [3]; [13]): 5.6 nM
CCc1c2c(nc3ccc(OC(=O)N4CCC(N5CCCCC5)CC4)cc13)-c1cc3c(c(=O)n1C2)COC(=O)[C@]3(O)CC [IRINOTECAN]	4000	4500	> 10000	10000	> 10000	2500	3100		EC50 (CMK [10]): > 10000 nM
CCOC(=O)C1=C(C)NC2=C(C(=O)CC(C)(C)C2)C1c1ccc(-c2ccccc2)cc1 (centres unmarked) [ITD-1]								Inactive	average effective concentration, ML-2 (ML2): Inactive; average effective concentration, M07e (M07e; M07e): Inactive; average effective concentration, MOLM-13 (MOLM-13 [8]): Inactive; average effective concentration, CMK (CMK [3]; [14]): Inactive; average effective concentration, MV4-11 (MV4-11 [9]): Inactive; average effective concentration, U937 (U937 [4]): Inactive
CCc1c(O)cc(O)c(C(=O)c2ccc(OCCN3CCOCC3)c(OC)c2)c1CC(=O)N(CCOC)CCOC.Cl [KW-2478]									average effective concentration, M07e (M07e; M07e): Inactive; average effective concentration, CMS (CMS [2]): Inactive; average effective concentration, U937 (U937 [4]): Inactive
Cc1ccc(F)c(NC(=O)Nc2ccc(-c3cccc4[nH]nc(N)c34)cc2)c1 [LINIFANIB]	> 10000		> 10000	6000	> 10000	7	3		EC50 (CHRF288-11 [12]): > 10000 nM; EC50 (CMK [3]; Homo sapiens): 5800 nM
COc1c(C)c2c(c(O)c1C/C=C(\C)CCC(=O)OCCN1CCOCC1)C(=O)OC2 [MYCOPHENOLATE MOFETIL]	1300	2900	> 10000	3000	> 10000	1500	1900		EC50 (CMK [3]; Homo sapiens): 7500 nM
COc1ccc(Cn2ccc3ccc(C(=O)NO)cc32)cc1 [PCI 34051]								Inactive	average effective concentration, ML-2 (ML2): Inactive; average effective concentration, M07e (M07e; […]): Inactive; average effective concentration, MOLM-13 (MOLM-13 [8]): Inactive; average effective concentration, CMK (CMK [3]; [14]): Inactive; average effective concentration, MV4-11 (MV4-11 [9]): Inactive; average effective concentration, U937 (U937 [4]): Inactive
Oc1cccc(-c2nc(N3CCOCC3)c3oc4ncccc4c3n2)c1 [PIK 103]								Inactive	average effective concentration, ML-2 (ML2): Inactive; average effective concentration, M07e (M07e; M07e): Inactive; average effective concentration, CMS (CMS [2]): Inactive
O=C(CCCCCCC(=O)Nc1cccnc1)NO [PYROXAMIDE]	> 10000		8200	5800	> 10000	6000	1600		EC50 (CHRF288-11 [12]): > 10000 nM; EC50 (CMK [10]): > 10000 nM
C[S+]([O-])CCCCN=C=S (centres unmarked) [SULFORAPHANE]	> 10000	> 10000	> 10000	> 10000					EC50 (CMS [2]; Homo sapiens, HTS): > 10000 nM
Cc1cc(C(C)Nc2ccccc2)c2nc(N3CCOCC3)cc(=O)n2c1 (centres unmarked) [TGX-221]								Inactive	average effective concentration, ML-2 (ML2): Inactive; average effective concentration, M07e (M07e; M07e): Inactive; average effective concentration, CMS (CMS [2]): Inactive; average effective concentration, U937 (U937 [4]): Inactive
O=c1[nH]c2sccc2c2ccccc12 [TIQ-A]								Inactive	average effective concentration, ML-2 (ML2): Inactive; EC50 (M07e; M07e): 7000 nM; EC50 (MOLM-13 [8]): 4200 nM; average effective concentration, CMK (CMK [3]; [14]): Inactive; EC50 (MV4-11 [9]): 3500 nM; average effective concentration, U937 (U937 [4]): Inactive
O=C(CCCCCCC(=O)Nc1ccc([C@H]2O[C@@H](CSc3nc(-c4ccccc4)c(-c4ccccc4)o3)C[C@@H](c3ccc(CO)cc3)O2)cc1)NO [TUBACIN]	> 10000	> 10000			> 10000	> 10000			EC50 (CMK [10]): > 10000 nM; EC50 (MV4-11 [5]): > 10000 nM; EC50 (M07e; Homo sapiens, M-07e, […]): 2500 nM; EC50 (U937 [11]): > 10000 nM
N#Cc1ccc(COC[C@H]2O[C@@H](n3c(NCc4ccc(Cl)c(Cl)c4)nc4c(N)ncnc43)[C@H](O)[C@@H]2O)cc1 [VER-155008]								Inactive	average effective concentration, ML-2 (ML2): Inactive; average effective concentration, M07e (M07e; M07e): Inactive; average effective concentration, MOLM-13 (MOLM-13 [8]): Inactive; average effective concentration, CMK (CMK [3]; [14]): Inactive; average effective concentration, MV4-11 (MV4-11 [9]): Inactive; average effective concentration, U937 (U937 [4]): Inactive
EVODIAMINE									EC50 (ML2): 450 nM; EC50 (M07e; […]): 4400 nM; EC50 (CMS [2]): 1500 nM; EC50 (CMK [3]; [14]): 300 nM; EC50 (U937 [4]): 2100 nM
